pIC50: −log10 of the molar value.
molecular target: EGFR (UniProt P00533)
Sequence (P00533 whole entry, looked up): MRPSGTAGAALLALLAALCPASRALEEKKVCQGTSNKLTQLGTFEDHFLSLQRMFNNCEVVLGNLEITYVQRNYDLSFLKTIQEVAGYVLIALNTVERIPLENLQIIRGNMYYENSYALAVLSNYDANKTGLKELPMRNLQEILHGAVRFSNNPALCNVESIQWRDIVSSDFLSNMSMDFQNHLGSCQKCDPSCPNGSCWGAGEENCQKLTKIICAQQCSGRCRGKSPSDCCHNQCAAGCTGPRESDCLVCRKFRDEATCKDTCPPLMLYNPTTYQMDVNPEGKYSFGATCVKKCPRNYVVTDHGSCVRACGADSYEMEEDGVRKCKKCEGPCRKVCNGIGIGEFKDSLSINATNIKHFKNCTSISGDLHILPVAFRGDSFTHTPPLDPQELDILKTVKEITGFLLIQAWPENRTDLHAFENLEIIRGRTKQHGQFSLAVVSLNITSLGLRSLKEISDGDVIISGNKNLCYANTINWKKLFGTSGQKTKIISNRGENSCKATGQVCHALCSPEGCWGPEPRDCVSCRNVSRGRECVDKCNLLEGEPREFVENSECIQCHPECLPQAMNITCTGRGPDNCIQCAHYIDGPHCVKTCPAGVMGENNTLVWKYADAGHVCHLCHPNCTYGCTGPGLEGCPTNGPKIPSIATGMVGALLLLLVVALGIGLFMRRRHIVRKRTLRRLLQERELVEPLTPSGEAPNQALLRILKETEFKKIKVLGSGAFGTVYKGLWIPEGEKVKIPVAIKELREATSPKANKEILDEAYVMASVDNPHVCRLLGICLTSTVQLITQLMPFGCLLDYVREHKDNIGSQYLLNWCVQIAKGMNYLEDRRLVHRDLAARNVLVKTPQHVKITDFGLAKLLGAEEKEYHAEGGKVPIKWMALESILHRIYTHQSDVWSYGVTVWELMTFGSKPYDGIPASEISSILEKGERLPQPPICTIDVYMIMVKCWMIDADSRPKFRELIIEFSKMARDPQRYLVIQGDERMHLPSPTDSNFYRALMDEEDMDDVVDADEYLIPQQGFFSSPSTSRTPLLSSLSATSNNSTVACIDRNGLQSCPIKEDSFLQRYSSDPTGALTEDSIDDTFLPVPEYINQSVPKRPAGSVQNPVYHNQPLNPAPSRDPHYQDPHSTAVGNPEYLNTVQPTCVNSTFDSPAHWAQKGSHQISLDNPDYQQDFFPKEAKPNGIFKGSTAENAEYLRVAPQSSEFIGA

Compound | pIC50
O=C1Nc2ccc(NC3CCNCC3)cc2/C1=C(\c1ccccc1)c1nc2ccccc2[nH]1 | 5.30 to 6.30
COCCN1CCC(Nc2ccc3c(c2)/C(=C(\c2ccc(F)c(Cl)c2)c2ncc[nH]2)C(=O)N3)CC1 | < 5.30
COCCN1CCC(Nc2ccc3c(c2)/C(=C(\c2ccc(F)c(F)c2)c2ncc[nH]2)C(=O)N3)CC1 | < 5.30
COCCN1CCC(Nc2ccc3c(c2)/C(=C(\c2ccc(F)cc2)c2ncc[nH]2)C(=O)N3)CC1 | < 5.30
CCN1CCC(Nc2ccc3c(c2)/C(=C(\c2cccc(F)c2)c2nc(-c4ccccc4)c[nH]2)C(=O)N3)CC1 | 6.30 to 7.30
COCCN1CCC(Nc2ccc3c(c2)/C(=C(\c2cccc(Cl)c2)c2ncc[nH]2)C(=O)N3)CC1 | 5.30 to 6.30
CCN1CCC(Nc2ccc3c(c2)/C(=C(/c2nc(C)c[nH]2)c2cccc(F)c2F)C(=O)N3)CC1 | 6.30 to 7.30
CS(=O)(=O)N1CCC(Nc2ccc3c(c2)/C(=C(\c2cccc(F)c2)c2ncc[nH]2)C(=O)N3)CC1 | < 5.30
COCCN1CCC(Nc2ccc3c(c2)/C(=C(\c2ccc(C(F)(F)F)nc2)c2ncc[nH]2)C(=O)N3)CC1 | < 5.30
COCCN1CCC(Nc2ccc3c(c2)/C(=C(\c2ccc(C)c(F)c2)c2ncc[nH]2)C(=O)N3)CC1 | 6.30 to 7.30
CCN1CCC(Nc2ccc3c(c2)/C(=C(\c2ccc(C(F)(F)F)c(F)c2)c2nc(C)c[nH]2)C(=O)N3)CC1 | > 7.30
COCCN1CCC(Nc2ccc3c(c2)/C(=C(\c2ccc(C)c(F)c2)c2nc(C)c[nH]2)C(=O)N3)CC1 | > 7.30
CCN1CCC(Nc2ccc3c(c2)/C(=C(/c2ncc[nH]2)c2cccc(F)c2F)C(=O)N3)CC1 | 6.30 to 7.30
O=C1Nc2ccc(OC3CCN(Cc4ccccc4)CC3)cc2/C1=C(\c1ccccc1)c1nc2ccccc2[nH]1 | 5.30 to 6.30
CS(=O)(=O)N1CCC(Nc2ccc3c(c2)/C(=C(\c2ccccc2)c2nc4ccccc4[nH]2)C(=O)N3)CC1 | 5.30 to 6.30
COCCN1CCC(Nc2ccc3c(c2)/C(=C(\c2cc(F)cc(F)c2)c2ncc[nH]2)C(=O)N3)CC1 | 6.30 to 7.30

Compound | pIC50
CCN1CCC(Nc2ccc3c(c2)/C(=C(\c2cccc(C(F)(F)F)c2)c2ncc[nH]2)C(=O)N3)CC1 | 5.30 to 6.30
CCN(CC)CCN1CCC(Nc2ccc3c(c2)/C(=C(\c2cccc(F)c2)c2ncc[nH]2)C(=O)N3)CC1 | < 5.30
CCN1CCC(Oc2ccc3c(c2)/C(=C(\c2cccc(Cl)c2)c2ncc[nH]2)C(=O)N3)CC1 | 5.30 to 6.30
COCCN1CCC(Nc2ccc3c(c2)/C(=C(\c2ccc(Cl)cc2)c2ncc[nH]2)C(=O)N3)CC1 | < 5.30
CCN1CCC(N(C)c2ccc3c(c2)/C(=C(\c2cccc(Cl)c2)c2nc4ccccc4[nH]2)C(=O)N3)CC1 | 5.30 to 6.30
COCCN1CCC(Nc2ccc3c(c2)/C(=C(\c2ccccc2)c2ncc[nH]2)C(=O)N3)CC1 | < 5.30
CCN1CCC(Nc2ccc3c(c2)/C(=C(\c2ccc(C(F)(F)F)nc2)c2ncc[nH]2)C(=O)N3)CC1 | < 5.30
O=C1Nc2ccc(NC3CCN(CCN4CCCC4)CC3)cc2/C1=C(\c1cccc(F)c1)c1ncc[nH]1 | < 5.30
CCN1CCC(Nc2ccc3c(c2)/C(=C(/c2nc(C)c[nH]2)c2cc(F)c(Cl)cc2Cl)C(=O)N3)CC1 | 6.30 to 7.30
CCN1CCC(Nc2ccc3c(c2)/C(=C(/c2ncc[nH]2)c2ccc(C(F)(F)F)cc2F)C(=O)N3)CC1 | 6.30 to 7.30
CC1(C)CC(Nc2ccc3c(c2)/C(=C(\c2ccccc2)c2nc4ccccc4[nH]2)C(=O)N3)CC(C)(C)N1 | 5.30 to 6.30
COCCN1CCC(Nc2ccc3c(c2)/C(=C(\c2cccc(F)c2)c2nc(C)c[nH]2)C(=O)N3)CC1 | 6.30 to 7.30
COCCN1CCC(Nc2ccc3c(c2)/C(=C(\c2cc(F)cc(F)c2)c2nc(C)c[nH]2)C(=O)N3)CC1 | 6.30 to 7.30
CCN1CCC(Oc2ccc3c(c2)/C(=C(\c2cc(F)cc(F)c2)c2nc4ccccc4[nH]2)C(=O)N3)CC1 | 5.30 to 6.30
CCN1CCC(Nc2ccc3c(c2)/C(=C(/c2nc(C)c[nH]2)c2ccc(C(F)(F)F)cc2F)C(=O)N3)CC1 | 6.30 to 7.30

Results, then the compound that gave them:

pIC50 | Compound
6.30 to 7.30 | CCN1CCC(Nc2ccc3c(c2)/C(=C(\c2ccc(F)cc2)c2nc(C)c[nH]2)C(=O)N3)CC1
5.30 to 6.30 | CCN1CCC(Nc2ccc3c(c2)/C(=C(\c2ccc(OC)cc2)c2ncc[nH]2)C(=O)N3)CC1
> 7.30 | CCN1CCC(Nc2ccc3c(c2)/C(=C(\c2ccc(C)c(F)c2)c2nc(C)c[nH]2)C(=O)N3)CC1
5.30 to 6.30 | COc1ccc2[nH]c(/C(=C3\C(=O)Nc4ccc(NC5CCN(Cc6ccccc6)C5)cc43)c3ccccc3)nc2c1 (stereo not drawn)
6.30 to 7.30 | CCN1CCC(Nc2ccc3c(c2)/C(=C(\c2cccc(OC)c2)c2nc4ccccc4[nH]2)C(=O)N3)CC1
6.30 to 7.30 | CCN1CCC(Nc2ccc3c(c2)/C(=C(\c2cccc(Cl)c2)c2ncc[nH]2)C(=O)N3)CC1
6.30 to 7.30 | CCN1CCC(Nc2ccc3c(c2)/C(=C(\c2cc(F)cc(F)c2)c2nc4cc(F)ccc4[nH]2)C(=O)N3)CC1
5.30 to 6.30 | CCN1CCC(Nc2ccc3c(c2)/C(=C(\c2ccc(OC)cc2)c2nc4cc(OC)ccc4[nH]2)C(=O)N3)CC1
< 5.30 | CCN1CCC(Nc2ccc3c(c2)/C(=C(/c2cc(F)cc(F)c2)c2nc4cc(F)ccc4[nH]2)C(=O)N3)CC1
6.30 to 7.30 | COCCN1CCC(Nc2ccc3c(c2)/C(=C(\c2ccc(C)cc2)c2ncc[nH]2)C(=O)N3)CC1
5.30 to 6.30 | CCN1CCC(Nc2ccc3c(c2)/C(=C(\c2ccc(F)cc2)c2ncc[nH]2)C(=O)N3)CC1
< 5.30 | COCCN1CCC(Nc2ccc3c(c2)/C(=C(\c2ccc(OC)cc2)c2ncc[nH]2)C(=O)N3)CC1
5.30 to 6.30 | COCCN1CCC(Nc2ccc3c(c2)/C(=C(\c2cccc(Cl)c2)c2nc4ccccc4[nH]2)C(=O)N3)CC1
5.30 to 6.30 | CCN1CCC(Nc2ccc3c(c2)/C(=C(\c2ccc([N+](=O)[O-])cc2)c2nc4ccccc4[nH]2)C(=O)N3)CC1
5.30 to 6.30 | CCN1CCC(Nc2ccc3c(c2)/C(=C(\c2ccc(C)cc2)c2nc4cc(OC)ccc4[nH]2)C(=O)N3)CC1
6.30 to 7.30 | CCN1CCC(Nc2ccc3c(c2)/C(=C(\c2cccc(Cl)c2)c2nc4ccccc4[nH]2)C(=O)N3)CC1
6.30 to 7.30 | COCCN1CCC(Nc2ccc3c(c2)/C(=C(\c2cc(F)cc(F)c2)c2nc4ccccc4[nH]2)C(=O)N3)CC1
5.30 to 6.30 | CCN1CCC(Nc2ccc3c(c2)/C(=C(\c2cccc(N)c2)c2nc4ccccc4[nH]2)C(=O)N3)CC1
5.30 to 6.30 | CCN1CCC(Nc2ccc3c(c2)/C(=C(\c2cccc(C#N)c2)c2nc4ccccc4[nH]2)C(=O)N3)CC1
5.30 to 6.30 | CCN1CCC(Oc2ccc3c(c2)/C(=C(\c2ccccc2)c2nc4cc(OC)ccc4[nH]2)C(=O)N3)CC1
5.30 to 6.30 | CCN1CCC(Nc2ccc3c(c2)/C(=C(\c2ccc(F)cc2)c2nc4ccccc4[nH]2)C(=O)N3)CC1
6.30 to 7.30 | CCN1CCC(Nc2ccc3c(c2)/C(=C(\c2ccc(N)cc2)c2nc4ccccc4[nH]2)C(=O)N3)CC1
5.30 to 6.30 | CCN1CCC(Nc2ccc3c(c2)/C(=C(\c2cccc([N+](=O)[O-])c2)c2nc4ccccc4[nH]2)C(=O)N3)CC1
5.30 to 6.30 | CN(C)CCN1CCC(Nc2ccc3c(c2)/C(=C(\c2ccccc2)c2nc4ccccc4[nH]2)C(=O)N3)CC1
< 5.30 | COCCN1CCC(Nc2ccc3c(c2)/C(=C(\c2ccccc2)c2nc4cc(Cl)ccc4[nH]2)C(=O)N3)CC1
6.30 to 7.30 | Cc1ccc(/C(=C2/C(=O)Nc3ccc(NC4CCN(C)CC4)cc32)c2ncc[nH]2)cc1
5.30 to 6.30 | COc1ccc2[nH]c(/C(=C3\C(=O)Nc4ccc(NC5CC(C)(C)NC(C)(C)C5)cc43)c3ccccc3)nc2c1
